US6953789B2, “Thiol compounds, their production and use” (Takeda Chemical Industries, Ltd., priority 1998, dated 2005)

What was measured:
[1] = molecular target: T1, recombinant human MMP-13 (Homo sapiens, UniProt P45452); test: Assay of MMP-13 inhibiting activity (fluorogenic peptide substrate); format: biochemical; conditions: 37° C., 2 hours
T1 construct: made in house; host or cells: baculovirus (pBlueBac4 / Bac-N-Blue; virus made in Sf9), expressed in High-Five insect cells; culture supernatant used
Method in brief: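 Baculovirus-expressed human MMP-13 (High-Five cell supernatant) in pH 7.5 Tris buffer with 200 mM NaCl, 20 mM CaCl2, 0.1% Brij 35, 1 mM 2-mercaptoethanol; reaction started with 40 μM (stock) MOCAc-PLGL-A2pr(DNP)-AR-NH2, 2 h at 37 °C, stopped at pH 3.0. Fluorescence 330/405 nm; IC50 versus no-compound control.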

[2] = system: nasal cartilage; test: Assay of cartilage collagen degradation inhibiting activity (IL-1β-stimulated nasal cartilage pieces, hydroxyproline release); format: cell-based, cow; conditions: 504 h; at 1 μM of compound; human recombinant IL-1β; incubation 3 weeks
Experimental: A nasal cartilage was isolated aseptically from a sacrificed cow, and preincubated in a Dulbecco's modified eagle medium containing 5% heat-inactivated fetal bovine serum, 100 units/ml of penicillin G and 100 units/ml of streptomycin at 37° C. under 5% CO2 and 95% air for 3 days. After completing the preincubation, a cartilage piece weighing about 10 mg was prepared and placed in 100 μl of a medium supplemented with a human recombinant interleukin-1β (IL-1β: *ZENZYME*) and a test compound. After incubating for 3 weeks in total during which the culture medium was replaced on the weekly basis, the total amount of hydroxyproline liberated into the culture medium and the amount of hydroxyproline remaining in the cartilage piece were determined and % collagen degradation was calculated. The collagen degradation inhibiting activity of a test compound was determined according to the following equation. Collagen degradation inhibiting activity (%)=100×(Ci−Cs)/(Ci−Cc) Equation: wherein Cc is % collagen degradation in the absence of both of IL-1β and compound, Ci is % collagen degradation in the presence of IL-1β, and Cs is a % collagen degradation in the presence of both of IL-1β and a test compound.

## O=C1C[C@@H](S)[C@H](COCc2ccccc2)N1Cc1ccc(Oc2ccccc2)cc1 (relative stereo) [Example 39, Trans-5-benzyloxymethyl-4-mercapto-1-(4-phenoxybenzyl)pyrrolidin-2-one]
[1]; Table 5
  IC50: 9 nM
[2]
  inhibition at 1 µM: 39%

## CC(=O)S[C@@H]1CC(=O)N(Cc2ccc(Oc3ccccc3)cc2)C1 [Example 24, (R)-4-Acetylthio-1-(4-phenoxybenzyl)pyrrolidin-2-one]
[1]; Table 3
  IC50: 9 nM
[2]
  inhibition at 1 µM: 91%

## O=C1C[C@@H](S)CN1Cc1ccc(Oc2ccccc2)cc1 [Example 25, (R)-4-Mercapto-1-(4-phenoxybenzyl)pyrrolidin-2-one]
[1]; Table 3
  IC50: 3 nM
[2]
  inhibition at 1 µM: 88%

## O=C1C[C@@H](S)CN1Cc1ccc(Oc2ccc(Cl)cc2)cc1 [Example 126, (R)-4-Mercapto-1-[4-(4-chlorophenoxy)benzyl]pyrrolidin-2-one]
[1]; Table 9
  IC50: 1.7 nM
[2]
  inhibition at 1 µM: 70%

## CC(=O)SC1CC(=O)N(Cc2ccc(Oc3ccccn3)cc2)C1 (centres unmarked) [Example 156, 4-Acetylthio-1-[4-(2′-pyridyloxy)benzyl]pyrrolidin-2-one]
[1]; Table 11
  IC50: 700 nM
[2]
  inhibition at 1 µM: 84%

## O=C1CC(S)CN1CCc1ccc(Oc2ccccc2)cc1 (centres unmarked) [Example 170, 1-(4-Phenoxyphenethyl)-4-sulfanyl-2-pyrrolidinone]
[1]; Table 10
  IC50: 500 nM

## CC(=O)SC1CC(=O)N(Cc2ccc([S+]([O-])c3ccccc3)cc2)C1 (centres unmarked) [Example 171, 4-Acetylthio-1-(4-phenylsulfinylbenzyl)pyrrolidin-2-one]
[1]; Table 10
  IC50: > 10000 nM

## O=C1CC(S)CN1Cc1ccc([S+]([O-])c2ccccc2)cc1 (centres unmarked) [Example 172, 4-Mercapto-1-(4-phenylsulfinylbenzyl)pyrrolidin-2-one]
[1]; Table 10
  IC50: > 10000 nM

## CC(=O)SC1CC(=O)N(Cc2ccc(S(=O)(=O)c3ccccc3)cc2)C1 (centres unmarked) [Example 173, 4-Acetylthio-1-(4-phenylsulfonylbenzyl)pyrrolidin-2-one]
[1]; Table 10
  IC50: > 10000 nM

## O=C1CC(S)CN1Cc1ccc(S(=O)(=O)c2ccccc2)cc1 (centres unmarked) [Example 174, 4-Mercapto-1-(4-phenylsulfonylbenzyl)pyrrolidin-2-one]
[1]; Table 10
  IC50: 510 nM

## CC(=O)S[C@H]1CC(=O)N(Cc2ccc(Oc3ccccc3)cc2)[C@H]1C [Example 175, (4S,5S)-4-Acetylthio-5-methyl-1-(4-phenoxybenzyl)pyrrolidin-2-one]
[1]; Table 5
  IC50: 100 nM

## C[C@H]1[C@@H](S)CC(=O)N1Cc1ccc(Oc2ccccc2)cc1 [Example 176, (4S,5S)-4-Mercapto-5-methyl-1-(4-phenoxybenzyl)pyrrolidin-2-one]
[1]; Table 5
  IC50: 50 nM

## CC(=O)S[C@@H]1CC(=O)N(Cc2ccc(Oc3ccccc3)cc2)[C@H]1C [Example 177, (4R,5S)-4-Acetylthio-5-methyl-1-(4-phenoxybenzyl)pyrrolidin-2-one]
[1]; Table 5
  IC50: 2 nM

## C[C@H]1[C@H](S)CC(=O)N1Cc1ccc(Oc2ccccc2)cc1 [Example 178, (4R,5S)-4-Mercapto-5-methyl-1-(4-phenoxybenzyl)pyrrolidin-2-one]
[1]; Table 5
  IC50: 5 nM

## CC(=O)SC1CC(=O)N(Cc2ccc(Oc3ccccc3)cc2)C1C(N)=O (stereo not drawn) [Example 187, trans-5-Aminocarbonyl-4-acetylthio-1-(4-phenoxybenzyl)pyrrolidin-2-one]
[1]; Table 5
  IC50: 360 nM

## NC(=O)C1C(S)CC(=O)N1Cc1ccc(Oc2ccccc2)cc1 (stereo not drawn) [Example 188, trans-5-Aminocarbonyl-4-mercapto-1-(4-phenoxybenzyl)pyrrolidin-2-one]
[1]; Table 5
  IC50: 13 nM

## CC(=O)SC1CC(=O)N(CC2CCN(C(=O)c3ccccc3)CC2)C1 (centres unmarked) [Example 193, 4-Acetylthio-1-[(1-benzoyl-4-piperidyl)methyl]pyrrolidin-2-one]
[1]; Table 11
  IC50: > 10000 nM

## CC(=O)SC1CN(Cc2ccc(Oc3ccccc3)cc2)C(=O)C1C (stereo not drawn) [Example 194, trans-4-Acetylthio-3-methyl-1-(4-phenoxybenzyl)pyrrolidin-2-one]
[1]; Table 6
  IC50: 30 nM

## CC1C(=O)N(Cc2ccc(Oc3ccccc3)cc2)CC1S (stereo not drawn) [Example 195, trans-4-Mercapto-3-methyl-1-(4-phenoxybenzyl)pyrrolidin-2-one]
[1]; Table 6
  IC50: 6 nM

## CC(=O)SC1CC(=O)N(C(=O)c2ccc(Oc3ccccc3)cc2)C1 (stereo not drawn) [Example 196, S-[5-Oxo-1-(4-phenoxybenzoyl)-3-pyrrolidinyl]ethanethioate]
[1]; Table 10
  IC50: > 10000 nM

## CC(=O)S[C@@H]1CC(=O)N(Cc2ccc(Oc3ccc4c(c3)OCO4)cc2)C1 [Example 198, S-{(3R)-1-{4-(1,3-benzodioxol-5-yloxy)benzyl]-5-oxopyrrolidinyl}ethanethioate]
[1]; Table 11
  IC50: 12 nM

## CC(=O)S[C@@H]1CC(=O)N(Cc2ccc(Oc3ccc(Br)cc3)cc2)C1 [Example 199, (R)-4-Acetylthio-1-[4-(4′-bromophenoxy)benzyl]pyrrolidin-2-one]
[1]; Table 9
  IC50: 6 nM

## O=C1C[C@@H](S)CN1Cc1ccc(Oc2ccc(Br)cc2)cc1 [Example 200, (R)-4-Mercapto-1-[4-(4′-bromophenoxy)benzyl]pyrrolidin-2-one]
[1]; Table 9
  IC50: 2 nM

## CC(=O)SC1CC(=O)N(Cc2ccc3oc4ccccc4c3c2)C1 (centres unmarked) [Example 201, 4-Acetylthio-1-(2-dibenzofuranmethyl)pyrrolidin-2-one]
[1]; Table 11
  IC50: 300 nM

## O=C1CC(S)CN1Cc1ccc2oc3ccccc3c2c1 (centres unmarked) [Example 202, 4-Mercapto-1-(2-dibenzofuranmethyl)pyrrolidin-2-one]
[1]; Table 11
  IC50: 100 nM

## CC(=O)SC1CC(=O)N(Cc2ccc(N(c3ccccc3)S(=O)(=O)c3ccc(C)cc3)cc2)C1 (centres unmarked) [Example 203, 4-Acetylthio-1-[4-(N-phenyl-N-p-toluenesulfonyl)aminobenzyl]pyrrolidin-2-one]
[1]; Table 11
  IC50: > 10000 nM

## Cc1ccc(S(=O)(=O)N(c2ccccc2)c2ccc(CN3CC(S)CC3=O)cc2)cc1 (centres unmarked) [Example 204, 4-Mercapto-1-[4-(N-phenyl-N-p-toluenesulfonylamino)benzyl]pyrrolidin-2-one]
[1]; Table 11
  IC50: 3900 nM

## (R)-4-Acethylthio-1-[4-(4-chlorophenoxy)benzyl]pyrrolidin-2-one [Example 125]
[1]; Table 9
  IC50: 6.1 nM

## Ethyl 3-{[(3R)-5-oxo-1-(4-phenoxybenzyl)-2-pyrrolidinyl]disulfanyl}propanoate [Example 84]
[1]; Table 3
  IC50: 32 nM

## S-[2-Oxo-1-(4-phenoxybenzyl)-4-piperidinyl]ethanethioate [Example 110]
[1]; Table 12
  IC50: 250 nM
